Data: publication PMC12671136, “Antimicrobial peptides disrupting the bacterial membrane reduce Salmonella colonization in chickens” (Microbiology Spectrum, 2025)
≈ marks a conversion by molar mass, not a printed value. Peptide text beside a SMILES is read from it.

Columns and labels:
Assay type in all cases: cell-based
[1] = system: Salmonella Typhimurium (ST); conditions: murium (ST)
Protocol: (§1) P1, P2, and P4 were heated for 6 min at 86°C ([21]) or treated with protease proteinase K (200 µg/ml) at 50°C for 30 min ([26]). Afterward, the treated and/or heated peptides at their respective MICs were evaluated in the inhibition assay with Salmonella. The protocol from above using the TECAN microplate reader was followed with the same controls.

[2] = system: Salmonella Enteritidis (SE)
Protocol: as §1

[3] = system: Salmonella Enteritidis (SE); conditions: 12 h
Protocol: (§2) The inhibitory effect of the peptides was assessed as described previously ([23]). ST was grown overnight and adjusted to 5 × 10^5 CFU/ml, and 100 µL of this measured concentration was placed into the wells of a 96-well plate. Peptides P1–P6 were added to the well at 12 mM concentration, and the plate was incubated in a TECAN Sunrise^TM absorbance microplate reader at 37°C, with kinetic absorbance measurements taken every 30 min for 12 h. The growth inhibitory activity was calculated with the formula (OD600 DMSO-treated well − OD600 peptide-treated well)/OD600 DMSO-treated well × 100%. Wells treated with DMSO and containing Salmonella, as well as sterile media wells without Salmonella, were used as controls. At least two independent experiments were conducted.
(§3) MIC was determined as the peptide concentration at which no increase in growth (no increase in OD) was observed, indicating complete inhibition of ST growth. Additionally, to test the efficacy of peptides against another serovar, the assay was conducted using SE, with peptides added at 15 mM and 18 mM concentrations. Following incubation (37°C, 12 h), cultures were plated on the LB agar plate to confirm the bactericidal effect. At least two independent experiments were conducted.
(§4) To analyze the perceived efficacy of arginine and lysine substitutes reported in previous studies ([36], [37]), specific amino acid residues in P1 and P2 were replaced with lysine or arginine and tested if the substitutions enhanced anti-Salmonella (ST and SE) activity. The MICs of the arginine or lysine substituted peptides ([…], […], […], KDENK, PDEKK, KDEKK) were determined as described above. At least two independent experiments were conducted.

Salmonella Muenchen = system: Salmonella Muenchen
Protocol: (§5) To further test the spectrum of the peptides’ anti-Salmonella capabilities, eight additional Salmonella serovars commonly implicated in foodborne illness (S. Anatum, S. Albany, S. Brenderup, S. Javiana, S. Heidelberg, S. Muenchen, S. Newport, S. Saintpaul) were investigated (Table S1). P1, P2, and P4 (selected based on dose-response assay results) were added to the assay at their MICs to determine their effect on different serovars. Inhibition was determined using the criteria described above.

Salmonella Heidelberg = system: Salmonella Heidelberg
Protocol: as §5

Salmonella Albany = system: Salmonella Albany
Protocol: as §5

Salmonella Saintpaul = system: Salmonella Saintpaul
Protocol: as §5

Salmonella Brenderup = system: Salmonella Brenderup
Protocol: as §5

Salmonella Anatum = system: Salmonella Anatum
Protocol: as §5

Salmonella Newport = system: Salmonella Newport
Protocol: as §5

Salmonella Javiana = system: Salmonella Javiana
Protocol: as §5

[4] = system: Salmonella Typhimurium (ST); conditions: for MIC: murium (ST, 12 h)
Protocol: as §2, §3, §4

Row | MIC (mM) against ST, Heat treatment [1] | MIC (mM) against ST, Protease treatment [1] | MIC (mM) against SE, Heat treatment [2] | MIC (mM) against SE, Protease treatment [2] | MIC (mM) against SE, No treatment [3] | Efficacy against Salmonella Muenchen (concentration inhibiting completely, MIC) (Salmonella Muenchen) | Efficacy against Salmonella Heidelberg (concentration inhibiting completely, MIC) (Salmonella Heidelberg) | Efficacy against Salmonella Albany (concentration inhibiting completely, MIC) (Salmonella Albany) | Efficacy against Salmonella Saintpaul (concentration inhibiting completely, MIC) (Salmonella Saintpaul) | Efficacy against Salmonella Brenderup (concentration inhibiting completely, MIC) (Salmonella Brenderup) | Efficacy against Salmonella Anatum (concentration inhibiting completely, MIC) (Salmonella Anatum) | Efficacy against Salmonella Newport (concentration inhibiting completely, MIC) (Salmonella Newport) | Efficacy against Salmonella Javiana (concentration inhibiting completely, MIC) (Salmonella Javiana) | MIC [4] | MIC [3] | SMILES | other results
1 | 18 mM (≈ 16 mg/mL) | 18 mM (≈ 16 mg/mL) | 18 mM (≈ 16 mg/mL) | 18 mM (≈ 16 mg/mL) | 18 mM (≈ 16 mg/mL) | 18 mM | 18 mM | 18 mM | 18 mM | 18 mM | 18 mM | 18 mM | 18 mM |  |  | CSCC[C@H](N)C(=O)N[C@@H](CC(C)C)C(=O)N[C@@H](CC(N)=O)C(=O)N[C@@H](CCC(=O)O)C(=O)N[C@@H](CCCNC(=N)N)C(=O)N[C@H](C(=O)N[C@@H](CCCCN)C(=O)O)C(C)C [Peptide P4] (H-MLNERVK-OH) | 
2 | 18 mM (≈ 18.8 mg/mL) | 18 mM (≈ 18.8 mg/mL) | 18 mM (≈ 18.8 mg/mL) | 18 mM (≈ 18.8 mg/mL) | 18 mM (≈ 18.8 mg/mL) | 18 mM | 18 mM | 18 mM | 18 mM | 18 mM | 18 mM | 18 mM | 18 mM |  |  | N=C(N)NCCC[C@H](NC(=O)[C@H](CCCNC(=N)N)NC(=O)[C@H](CCC(=O)O)NC(=O)[C@H](CCC(N)=O)NC(=O)[C@H](CCCNC(=N)N)NC(=O)[C@H](CO)NC(=O)[C@@H]1CCCN1C(=O)[C@@H](N)CC(N)=O)C(=O)O [Peptide P1] (H-NPSRQERR-OH) | 
3 | 15 mM (≈ 9.02 mg/mL) | 15 mM (≈ 9.02 mg/mL) | 15 mM (≈ 9.02 mg/mL) | 15 mM (≈ 9.02 mg/mL) | 15 mM (≈ 9.02 mg/mL) | 15 mM | 15 mM | 15 mM | 15 mM | 15 mM | 15 mM | 15 mM | 15 mM |  |  | NCCCC[C@H](NC(=O)[C@H](CC(N)=O)NC(=O)[C@H](CCC(=O)O)NC(=O)[C@H](CC(=O)O)NC(=O)[C@@H]1CCCN1)C(=O)O [Peptide P2] (H-PDENK-OH) | 

Second part, the compound before the results:

Row | SMILES | MIC (mM) against ST, Heat treatment [1] | MIC (mM) against ST, Protease treatment [1] | MIC (mM) against SE, Heat treatment [2] | MIC (mM) against SE, Protease treatment [2] | MIC (mM) against SE, No treatment [3] | Efficacy against Salmonella Muenchen (concentration inhibiting completely, MIC) (Salmonella Muenchen) | Efficacy against Salmonella Heidelberg (concentration inhibiting completely, MIC) (Salmonella Heidelberg) | Efficacy against Salmonella Albany (concentration inhibiting completely, MIC) (Salmonella Albany) | Efficacy against Salmonella Saintpaul (concentration inhibiting completely, MIC) (Salmonella Saintpaul) | Efficacy against Salmonella Brenderup (concentration inhibiting completely, MIC) (Salmonella Brenderup) | Efficacy against Salmonella Anatum (concentration inhibiting completely, MIC) (Salmonella Anatum) | Efficacy against Salmonella Newport (concentration inhibiting completely, MIC) (Salmonella Newport) | Efficacy against Salmonella Javiana (concentration inhibiting completely, MIC) (Salmonella Javiana) | MIC [4] | MIC [3] | other results
4 | NCCCC[C@H](NC(=O)[C@H](CCCCN)NC(=O)[C@H](CCC(=O)O)NC(=O)[C@H](CC(=O)O)NC(=O)[C@@H](N)CCCCN)C(=O)O [KDEKK] (H-KDEKK-OH) |  |  |  |  |  |  |  |  |  |  |  |  |  | 15 mM (≈ 9.7 mg/mL) | 15 mM (≈ 9.7 mg/mL) | 
5 | NCCCC[C@H](NC(=O)[C@H](CCCCN)NC(=O)[C@H](CCC(=O)O)NC(=O)[C@H](CC(=O)O)NC(=O)[C@@H]1CCCN1)C(=O)O [PDEKK] (H-PDEKK-OH) |  |  |  |  |  |  |  |  |  |  |  |  |  | 15 mM (≈ 9.24 mg/mL) |  | 
6 | N=C(N)NCCC[C@H](NC(=O)[C@H](CCCNC(=N)N)NC(=O)[C@H](CCC(=O)O)NC(=O)[C@H](CCCNC(=N)N)NC(=O)[C@H](CCCNC(=N)N)NC(=O)[C@H](CCCNC(=N)N)NC(=O)[C@@H]1CCCN1C(=O)[C@@H](N)CC(N)=O)C(=O)O (H-NPRRRERR-OH) |  |  |  |  |  |  |  |  |  |  |  |  |  | 15 mM (≈ 17.1 mg/mL) | >18 mM | 
7 | N=C(N)NCCC[C@H](NC(=O)[C@H](CCCNC(=N)N)NC(=O)[C@H](CCC(=O)O)NC(=O)[C@H](CCC(N)=O)NC(=O)[C@H](CCCNC(=N)N)NC(=O)[C@H](CCCNC(=N)N)NC(=O)[C@@H]1CCCN1C(=O)[C@@H](N)CC(N)=O)C(=O)O (H-NPRRQERR-OH) |  |  |  |  |  |  |  |  |  |  |  |  |  | 15 mM (≈ 16.7 mg/mL) | 18 mM (≈ 20 mg/mL) | 
8 | CC(C)[C@H](N)C(=O)N[C@@H](Cc1c[nH]cn1)C(=O)N[C@H](C(=O)N[C@@H](C)C(=O)N1CCC[C@H]1C(=O)N[C@@H](CCCCN)C(=O)O)[C@@H](C)O [Peptide P3] (H-VHTAPK-OH; N-terminus and C-terminus assumed) |  |  |  |  |  |  |  |  |  |  |  |  |  |  |  | Complete inhibition of ST growth ([4]; peptide 6, 12, 15 and 18 mM, 12 h, 37°C): Neither P3 nor P4 completely inhibited ST
9 | NCCCC[C@H](NC(=O)[C@H](CC(N)=O)NC(=O)[C@H](CCC(=O)O)NC(=O)[C@H](CC(=O)O)NC(=O)[C@@H](N)CCCCN)C(=O)O [KDENK] (H-KDENK-OH) |  |  |  |  |  |  |  |  |  |  |  |  |  | 12 mM (≈ 7.59 mg/mL) | 12 mM (≈ 7.59 mg/mL) | 
10 | N=C(N)NCCC[C@H](NC(=O)[C@H](CCCNC(=N)N)NC(=O)[C@H](CCC(=O)O)NC(=O)[C@H](CCCNC(=N)N)NC(=O)[C@H](CCCNC(=N)N)NC(=O)[C@H](CO)NC(=O)[C@@H]1CCCN1C(=O)[C@@H](N)CC(N)=O)C(=O)O (H-NPSRRERR-OH) |  |  |  |  |  |  |  |  |  |  |  |  |  | >18 mM | >18 mM | 
